{"source": "patent US7303887B2", "about": "“Mule: Mcl-1 ubiquitination ligase E3” (Board of Regents, The University of Texas System, priority 2005, dated 2007)", "key": {"Mcl-1 and Mule": {"tested_on": "Mcl-1 and Mule", "assay": "Co-immunoprecipitation of Mule with Flag-Mcl-1 from Flag-Mcl-1 expressing cells", "assay_type": "cell-based", "conditions": "anti-Flag immunoprecipitation", "text": "We next tested whether Mule interacts with Mcl-1 in vivo. Cell extracts from Flag-Mcl-1 expressing cells were immunoprecipitated with an anti-Flag monoclonal antibody. The immunoprecipitates were then subjected to SDS-PAGE and immunoblotted with antibodies against Flag or Mule. The antibody against Flag precipitated Flag-Mcl-1 in Flag-Mcl-1 expressing cells but not in the control cells. The Flag antibody also precipitated Mule, and the amount of co-precipitated Mcl-1 and Mule increased upon treatment with the proteasome inhibitor MG132."}, "proteasome": {"tested_on": "proteasome", "assay": "Western blotting for Mcl-1 in Hela cells treated with proteasome inhibitor", "assay_type": "cell-based, human", "conditions": "anti-Mcl-1 western blotting", "text": "Proteins targeted for proteasome degradation are usually modified by a poly-ubiquitin chain (Hershko and Ciechanover, 1998). To test whether Mcl-1 is ubiquitinated, we treated Hela cells with a proteasome inhibitor MG132 to block the proteasome activity and performed western blotting analysis for Mcl-1 to test for the accumulation of higher molecular weight forms that could be ubiquitin modified. […] To verify these higher molecular weight bands were indeed caused by polyubiquitin conjugation of Mcl-1, the protein was immunoprecipitated by an anti-Mcl-1 antibody and the immuno-precipitate was probed by an anti-ubiquitin antibody."}, "U2OS cells [1]": {"tested_on": "U2OS cells", "assay": "Cell death induced by DNA damaging agents with Mule knocked down", "assay_type": "cell-based, human", "conditions": "for cell death induced by the agent: Mule knocked down versus not", "procedure": "The Mule shRNA construct was co-transfected with tetracycline repressor expression construct into 5×10^5 attached U2OS cells grown in DMEM with 10% FBS using Lipofectamine transfection reagent (Invitrogen) according to the manufacturer's protocol. One day later, the cells were selected against 1 μg/ml blasticidine and 2 μg/ml puromycin. After two weeks, individual clones were lifted and tested for expression of tetracycline repressor. Positive clones were further tested for Mule shRNA expression. Clones were treated with 2 μg/ml tetracycline for 3 days. Cell extracts were collected and subjected to 6% SDS-PAGE and western blotting with anti-Mule monoclonal antibody. Clones with the best inducible knock down of Mule were chosen for further experiments. […] We then treated cells with their Mule level knocked down with several DNA damaging agents including UV-irradiation and two commonly used chemotherapeutic drugs etoposide and cisplatin. […] We therefore performed a detailed biochemical analysis in cells treated with this drug with or without Mule knocked down."}, "U2OS cells [2]": {"tested_on": "U2OS cells", "assay": "Colony growth 8 days after 6 hours of cisplatin treatment", "assay_type": "cell-based, human", "conditions": "6 hours treatment, 8 days culture", "procedure": "To test whether the delayed apoptosis when Mule was knocked down has a long last effect, cells were switched to fresh medium after 6 hours of cisplatin treatment and continued culture for 8 days."}, "caspase-3": {"tested_on": "caspase-3", "assay": "Caspase-3 activation (cleavage) and PARP cleavage after cisplatin treatment", "assay_type": "cell-based, human", "text": "We then treated cells with their Mule level knocked down with several DNA damaging agents including UV-irradiation and two commonly used chemotherapeutic drugs etoposide and cisplatin. […] We therefore performed a detailed biochemical analysis in cells treated with this drug with or without Mule knocked down."}, "Mule (Homo sapiens)": {"molecular_target": "T1, Mule (Homo sapiens)", "T1 construct": "The cDNA of full-length human Mule was subcloned into Sal I and Not I sites of pFastBac-1; made in house; host or cells: Sf21 insect cells, baculovirus (pFastBac-1)", "T1 sequence (Q07820 whole entry)": "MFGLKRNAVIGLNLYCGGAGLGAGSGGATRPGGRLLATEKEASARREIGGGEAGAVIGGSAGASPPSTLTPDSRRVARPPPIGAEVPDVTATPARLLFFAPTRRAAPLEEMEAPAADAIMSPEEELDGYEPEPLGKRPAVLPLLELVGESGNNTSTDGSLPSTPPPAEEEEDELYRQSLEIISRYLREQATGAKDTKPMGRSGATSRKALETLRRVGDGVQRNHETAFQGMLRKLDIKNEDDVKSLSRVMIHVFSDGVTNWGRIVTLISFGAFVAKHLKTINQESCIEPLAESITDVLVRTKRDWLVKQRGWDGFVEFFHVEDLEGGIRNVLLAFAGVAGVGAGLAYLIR", "assay": "In vitro Mcl-1 ubiquitination assay, reconstituted system, competition by BH3 peptides", "assay_type": "biochemical", "conditions": "peptide at 4 μM", "procedure": "(§1) In vitro Ubiguitination assay: In 15 ul reaction, 200 ng of recombinant Flag-Mcl-1 is incubated with an ATP regenerating system (50 mM Tris pH 7.6, 5 mM MgCl2, 2 mM ATP, 10 mM creatine phosphate, 3.5 U/ml of creatine kinase), 10 μg of Methyl-Ubiquitin, 10 ng human E1, 100 ng Ubch7, 2 μM of ubiquitin aldehyde, and 10 μg of S100 or designated fractions, at 37° C. for one hour. After terminating the reactions with SDS sample buffer, reaction products were fractionated by SDS-PAGE (10%) and analyzed by western blotting with anti-Flag M2 antibody during purification and anti-Mcl-1 when purified components were used.\nWe used methylated ubiquitin for further biochemical analysis because it gave clearer signal. Mule ubiquitinated Mcl-1 in a dose-dependent manner, and the ubiquitination activity relied on the presence of E1 and E2.\nThe members of Bcl-2 family of proteins containing only the BH3 domain use this domain to interact with other family members. If Mule also uses its BH3 domain to interact with Mcl-1, a peptide containing this domain should compete for Mule-Mcl-1 interaction therefore blocking Mcl-1 ubiquitination in the reconstituted system. To test this hypothesis, we synthesized a 26 amino acid Mule BH3-containing peptide and a mutant peptide in which four hydrophobic residues required for protein-protein interaction were switched with […] (4E)."}, "Mcl-1 [3]": {"molecular_target": "T2, Mcl-1 (Homo sapiens, UniProt Q07820)", "T2 sequence (Q07820 whole entry, the tested form may be a part)": "as the sequence (Q07820 whole entry) above", "assay": "Biotin-labeled BH3 peptide pull down from HeLa S100", "assay_type": "binding", "set-up": "endogenous in cells; host or cells: HeLa S100", "text": "(§2) To examine whether BH3 domain of Mule is sufficient for interaction with Mcl-1, we used a biotin-labeled version of the 26 amino acids Mule BH3 peptide (aa 1969-1994) and the 4E mutant to pull down proteins from cell extracts."}, "Bcl-2": {"molecular_target": "T3, Bcl-2 (Homo sapiens, UniProt P10415)", "T3 construct": "endogenous in cells; host or cells: HeLa S100", "T3 sequence (P10415 whole entry)": "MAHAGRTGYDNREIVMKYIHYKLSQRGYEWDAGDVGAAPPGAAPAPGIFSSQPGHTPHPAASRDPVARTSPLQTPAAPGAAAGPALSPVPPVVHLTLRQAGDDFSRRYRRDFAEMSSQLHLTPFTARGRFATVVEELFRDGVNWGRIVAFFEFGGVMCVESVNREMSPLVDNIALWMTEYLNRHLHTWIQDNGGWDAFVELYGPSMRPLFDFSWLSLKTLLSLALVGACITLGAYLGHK", "assay": "Biotin-labeled BH3 peptide pull down from HeLa S100", "assay_type": "binding", "text": "as §2"}, "Bax": {"molecular_target": "T4, Bax (Homo sapiens, UniProt Q07812)", "T4 construct": "endogenous in cells; host or cells: HeLa S100", "T4 sequence (Q07812 whole entry)": "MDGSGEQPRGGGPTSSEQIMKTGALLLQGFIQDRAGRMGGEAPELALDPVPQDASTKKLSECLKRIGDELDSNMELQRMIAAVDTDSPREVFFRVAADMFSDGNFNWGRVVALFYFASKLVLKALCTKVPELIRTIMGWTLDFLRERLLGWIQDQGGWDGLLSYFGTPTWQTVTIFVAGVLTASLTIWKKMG", "assay": "Biotin-labeled BH3 peptide pull down from HeLa S100", "assay_type": "binding", "text": "as §2"}, "Bcl-xL": {"molecular_target": "T5, Bcl-xL (Homo sapiens, UniProt Q07817)", "T5 construct": "endogenous in cells; host or cells: HeLa S100", "T5 sequence (Q07817 whole entry)": "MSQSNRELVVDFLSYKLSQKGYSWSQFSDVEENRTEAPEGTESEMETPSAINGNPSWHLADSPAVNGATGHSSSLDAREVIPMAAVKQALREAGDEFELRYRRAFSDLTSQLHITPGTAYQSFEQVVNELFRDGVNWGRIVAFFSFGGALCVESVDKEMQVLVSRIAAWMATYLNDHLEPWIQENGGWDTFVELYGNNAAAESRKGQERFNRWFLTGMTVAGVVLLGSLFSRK", "assay": "Biotin-labeled BH3 peptide pull down from HeLa S100", "assay_type": "binding", "text": "as §2"}, "Mcl-1 [4]": {"molecular_target": "T2, Mcl-1", "assay": "In vitro Mcl-1 ubiquitination by purified recombinant Mule", "assay_type": "biochemical", "conditions": "in the presence of E1, Ubch7 (E2), ATP regenerating system; ubiquitin, methylated or GST-tagged ubiquitin", "procedure": "as §1\nThe cDNA of full-length human Mule was subcloned into Sal I and Not I sites of pFastBac-1 (Invitrogen). Mule expression baculovirus were prepared according to manufacture's manual (Bac-to-Bac Baculovirus expression system, Invitrogen, Carlsbad, Calif.). Insect cells Sf21 were infected with the P3 virus. The cells were harvested after 2 days of infection. Cell pellet was re-suspended in buffer A and homogenized with a glass douncer (pellet of 1 L culture of infected Sf21 cells was resuspended in 50 ml of buffer A). The homogenate was centrifuged at 100,000 g (SW28 rotor, 25,000 rpm) for 1 hr. The S100 (2 g total protein) were filtered and loaded onto Q column (hand-packed 36 ml of Q Sepharose XL beads). […]"}}, "note": "Ends that are not written are not given here. Peptide text beside a SMILES is read from it. * marks the point of attachment. Cbz = O=C(OCc1ccccc1)*"}
{"compound": "CC(C)C[C@@H](C=O)NC(=O)[C@H](CC(C)C)NC(=O)[C@H](CC(C)C)NC(=O)OCc1ccccc1", "note": "[MG132] (Cbz-Leu-Leu-Leu-aldehyde)", "values": [{"measurement": "amount of co-precipitated Mcl-1 and Mule", "setting": "Mcl-1 and Mule", "result": "increased"}, {"measurement": "accumulation of higher molecular weight (polyubiquitinated) forms of Mcl-1", "setting": "proteasome", "result": "Higher molecular weight protein bands were detected"}]}
{"compound": "N.N.[Cl][Pt][Cl]", "note": "[cisplatin]", "values": [{"measurement": "ability to induce apoptosis among the DNA damaging agents", "setting": "U2OS cells [1]; Mule knocked down", "result": "least ability to induce apoptosis"}, {"measurement": "cell death induced by the agent", "setting": "U2OS cells [1]", "result": "reduced when Mule was knocked down"}, {"measurement": "colonies relative to cells containing Mule", "setting": "U2OS cells [2]; Mule knocked down", "result": "more than nine fold more colonies"}, {"measurement": "colonies grown up", "setting": "U2OS cells [2]; cells containing Mule", "result": "few if any colonies"}, {"measurement": "start of (weak) caspase-3 activation after treatment", "setting": "caspase-3; Mule knocked down", "result": 8, "unit": "h"}, {"measurement": "caspase-3 activation", "setting": "caspase-3; Mule knocked down, 6 hours after treatment", "result": "did not see any caspase-3 activation"}, {"measurement": "start of caspase-3 activation after treatment", "setting": "caspase-3; cells with Mule present", "result": 4, "unit": "h"}, {"measurement": "cleavage of PARP", "setting": "caspase-3; with or without Mule knocked down", "result": "showed the same pattern"}]}
{"compound": "COc1cc([C@@H]2c3cc4c(cc3[C@@H](O[C@@H]3O[C@@H]5CO[C@@H](C)O[C@H]5[C@H](O)[C@H]3O)[C@H]3COC(=O)[C@H]23)OCO4)cc(OC)c1O", "note": "[etoposide]", "values": [{"measurement": "cell death induced by the agent", "setting": "U2OS cells [1]", "result": "reduced when Mule was knocked down"}]}
{"compound": "Mule BH3 peptide: synthesized 26 amino acid Mule BH3-containing peptide (aa 1969-1994); biotin-labeled version used for pull down (PGVMTQEVGQLLQDMGDDVYQQYRSL; also: biotin-labeled (position not given here); UniProt Q7Z6Z7 1969-1994, looked up, fragment)", "values": [{"measurement": "block of Mcl-1 ubiquitination", "setting": "Mule (Homo sapiens)", "result": "efficiently block Mcl-1 ubiquitination"}, {"measurement": "pull down of Mcl-1", "setting": "Mcl-1 [3]", "result": "specifically pulled down Mcl-1"}, {"measurement": "pull down of Bcl-2", "setting": "Bcl-2", "result": "not Bcl-xL, Bcl-2, and Bax"}, {"measurement": "pull down of Bax", "setting": "Bax", "result": "not Bcl-xL, Bcl-2, and Bax"}, {"measurement": "pull down of Bcl-xL", "setting": "Bcl-xL", "result": "not Bcl-xL, Bcl-2, and Bax"}]}
{"compound": "recombinant Mule: purified recombinant full-length human Mule protein, baculovirus-based expression system; Mcl-1 ubiquitin ligase E3", "values": [{"measurement": "stimulation of Mcl-1 ubiquitination", "setting": "Mcl-1 [4]", "result": "able to stimulate Mcl-1 ubiquitination"}]}
